The NIST ThermoML archive (doi:10.1021/je400184t)
Where “and” joins values, the source holds several entries; their conditions need not be identical. Identical values can stand only once. ± gives the expanded uncertainty stated by the source.

Experiments:
[1] = xn = mol fraction of the nth substance listed; settings: 101 kPa, Liquid, Vibrating tube method, x1 = 1
[2] = 101 kPa, Liquid, Vibrating tube method

Structure (SMILES)	mass density ([1]; 298.15 K) [kg/m3]	mass density ([1]; 288.15 K) [kg/m3]	mass density ([1]; 353.15 K) [kg/m3]	mass density ([2]; 288.15 K)	mass density ([2]; 298.15 K)	mass density ([2]; 353.15 K)
CCCCCCC [heptane] + Cc1ccccc1	679.537 ± 0.26					
c1ccncc1 [pyridine] + CN(CCO)CCO	978.086 ± 0.2	988.343 ± 0.2	921.952 ± 0.21			
c1ccncc1 [pyridine]				988.041 ± 0.2 kg/m3 and 988.343 ± 0.2 kg/m3	978.145 ± 0.2 kg/m3 and 978.086 ± 0.2 kg/m3	921.953 ± 0.21 kg/m3 and 921.952 ± 0.21 kg/m3
CN(CCO)CCO [N-methyldiethanolamine]				1046.36 ± 0.21 kg/m3	1036.81 ± 0.21 kg/m3	994.015 ± 0.2 kg/m3
Cc1ccccc1 [toluene]					862.222 ± 0.21 kg/m3	
c1ccncc1 [pyridine] + NCCO	978.145 ± 0.2	988.041 ± 0.2	921.953 ± 0.21			
CCCCCCC [heptane]					679.537 ± 0.26 kg/m3	
NCCO [2-aminoethan-1-ol]				1019.87 ± 0.2 kg/m3	1012.12 ± 0.2 kg/m3	968.332 ± 0.2 kg/m3
